Where a name gives a salt, the structure may show the parent alone.
Assays:
[1] = system: ACh levels in the hippocampus; experiment: Hippocampal ACh microdialysis with rivastigmine and scopolamine in the perfusion fluid; assay type: in vivo, wild type mice
Source text: Under the condition of cholinesterase inhibition used in these experiments (a very small amount of a cholinesterase inhibitor, 100 nanomolar rivastigmine, added to the perfusion fluid), ACh levels in the hippocampus rise, and when they rise strongly enough, they limit additional ACh release by activating pre-synaptic muscarinic receptors of the M2/M4 subtype (so-called negative feedback receptors).
In this situation, adding scopolamine ([…]) to the perfusion fluid blocks these presynaptic receptors and, as a consequence, ACh levels rise by 3-5 fold. The fact that LMTM is not additive with rivastigmine in these experiments supports the conclusion that LMTM has a different mechanism of action from rivastigmine. In other words, although LMTM has been described as being a weak inhibitor of cholinesterases in high concentrations, the present effects seem to be unrelated to cholinesterase inhibition, because there is no additive effect with small quantities of rivastigmine.

[2] = system: synaptophysin; experiment: Quantitative immunohistochemistry of synaptophysin in brain sections; assay type: in vivo; conditions: wild-type mice
Protocol: (§1) Wild-type and L1 mice (n=7-16 for each group) were pre-treated with rivastigmine (0.1 or 0.5 mg/kg/day) or memantine (2 or 20 mg/kg/day) or vehicle for 5 weeks by gavage. For the following 6 weeks, LMTM (5 and 15 mg/kg) or vehicle were added to this daily treatment regime, also by gavage. Animals were tested behaviourly during weeks 10 and 11 using a problem solving task in the open field water maze and then sacrificed for immunohistochemical and other tissue analyses.

[3] = system: tau transgenic L1 mice; experiment: Treatment effects of LMTM and rivastigmine in tau transgenic L1 mice; assay type: in vivo; conditions: results not shown
Source text: In the L1 mouse model which was used in some of the present studies, there is over-expression of a three-repeat tau fragment encompassing residues 296-390 of the 2N4R tau isoform under the control of the Thy 1 promotor in an NMRI mouse strain (WO2002/059150). This fragment corresponds to the segment of tau first identified within the proteolytically stable core of the PHF (Wischik et al., 1988a; Wischik et al., 1988b) and recently confirmed by cryo-electronmicroscopy of PHFs in AD and tau filaments in Pick's disease (Fitzpatrick et al., 2017; Falcon et al., 2018).
The treatment schedule used to study the negative interaction between symptomatic treatments and LMTM was designed to model the clinical situation in which subjects are first treated chronically with a cholinesterase inhibitor or memantine before receiving LMTM. In what follows, we summarise some of the key results obtained for the AChEI, rivastigmine. […]
For measurement of acetylcholine (ACh) levels in hippocampus, animals (wild-type or L1) were treated with LMTM (5 mg/kg/day for 2 weeks) after prior treatment for 2 weeks with or without rivastigmine (0.5 mg/kg/day). […] Levels of ACh were measured in hippocampus using an implanted microdialysis probe and HPLC analysis of the extracellular fluid.

[4] = system: acetylcholine (ACh) levels in hippocampus; experiment: Hippocampal acetylcholine levels by implanted microdialysis probe and HPLC; assay type: in vivo; conditions: wild-type mice
Protocol: […] Rivastigmine was administered subcutaneously with an Alzet minipump whereas LMTM was administered by oral gavage. Levels of ACh were measured in hippocampus using an implanted microdialysis probe and HPLC analysis of the extracellular fluid.
Data are presented as group averages and standard errors of mean and were analysed using parametric statistics, with alpha set to 0.05.

[5] = system: wild-type mice; experiment: Behaviour: problem solving task in the open field water maze; assay type: in vivo
Protocol: as §1, with “The treatment schedule used to study the negative interaction between symptomatic treatments and LMTM was designed to model the clinical situation in which subjects are first treated chronically with a cholinesterase inhibitor or memantine before receiving LMTM. In what follows, we summarise some of the key results obtained for the AChEI, rivastigmine. Wild-type” for “Wild-type”

[6] = system: Mitochondrial complex IV; experiment: Direct measurement of mitochondrial complex IV activity after treatment; assay type: in vivo; conditions: wild type mice
Protocol: as §1, with “The treatment schedule used to study the negative interaction between symptomatic treatments and LMTM was designed to model the clinical situation in which subjects are first treated chronically with a cholinesterase inhibitor or memantine before receiving LMTM. In what follows, we summarise some of the key results obtained for the AChEI, rivastigmine. Wild-type” for “Wild-type”

[7] = LMTM alone 5 or 15 mg/kg/day, approximate rounded percentage

| SMILES | rise in ACh levels in the hippocampus ([1]; scopolamine (μM) added to perfusion fluid containing 100 nanomolar rivastigmine) | effect on ACh levels in scopolamine experiments ([1]; wild type mice, 100 nanomolar rivastigmine in the perfusion fluid, scopolamine blocking M2/M4 receptors) | Synaptophysin, ↑ (increase) [2, 7] | increase in mean synaptophysin levels ([2]; mean of hippocampus, visual cortex, diagonal band and septum, LMTM alone (FIG. 1B)) | treatment effects in L1 mice compared with wild-type mice [3] | increase in basal ACh levels in hippocampus ([4]; LMTM 5 mg/kg/day for 2 weeks, oral gavage, significant (FIG. 1A)) | ACh release, ↑ (increase) [4, 7] | spatial recognition memory [5] | complex IV activity following LMTM treatment [6] |
| --- | --- | --- | --- | --- | --- | --- | --- | --- | --- |
| CN1[C@@H]2C[C@@H](OC(=O)[C@H](CO)c3ccccc3)C[C@H]1[C@@H]1O[C@@H]12 [scopolamine, reference compound] | 3-5 fold | – | – | – | – | – | – | – | – |
| CN(C)c1ccc2c(c1)Sc1cc(N(C)C)ccc1N2 [LMTM, hydromethylthionine mesylate] | – | less than that seen with rivastigmine alone | ↑ × 300% | 3 fold | larger and more generalised | 2 fold | ↑ × 200% | not associated with improvement | did not show any increase |

Reference: US20220330594A1 (WisTa Laboratories Ltd., priority 2019, published 2022)
